Test results taken from ChEMBL document CHEMBL1201862, “PubChem BioAssay data set” (2004).
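Protocol summary: plate cells (96-well), add compound at 5 concentrations, incubate 48 h, interpolate endpoints linearly. The concentration for 50% growth inhibition is given as GI50.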 Calls of active or inactive are those of the source. Cut-off read from the data, not from the text of the source: active = GI50 up to about 1.1 µM and inactive = higher.

Assays:
Assay in all cases: NCI-60 cell line screen, 48 h
[1] = test system: MDA-MB-231
[2] = test system: SF-268
[3] = test system: NCI-H226
[4] = test system: NCI/ADR-RES
[5] = test system: OVCAR-3
[6] = test system: SK-MEL-2
[7] = test system: IGROV-1
[8] = test system: MDA-N
[9] = test system: COLO 205
[10] = test system: MOLT-4
[11] = test system: HOP-92
[12] = test system: ACHN
[13] = test system: MCF7
[14] = test system: NCI-H23
[15] = test system: EKVX
[16] = test system: UO-31
[17] = test system: RXF 393
[18] = test system: KM12
[19] = test system: CCRF-CEM
[20] = test system: SR
[21] = test system: HCC 2998
[22] = test system: NCI-H522
[23] = test system: HCT-116
[24] = test system: 786-0
[25] = test system: Malme-3M
[26] = test system: A498
[27] = test system: U-251
[28] = test system: OVCAR-4
[29] = test system: NCI-H460
[30] = test system: OVCAR-5
[31] = test system: CAKI-1
[32] = test system: MDA-MB-435
[33] = test system: SF-295
[34] = test system: K562
[35] = test system: A549
[36] = test system: HOP-62
[37] = test system: Hs-578T
[38] = test system: OVCAR-8
[39] = test system: SF-539
[40] = test system: SNB-19
[41] = test system: M14
[42] = test system: UACC-62
[43] = test system: PC-3
[44] = test system: SK-MEL-28
[45] = test system: SW-620
[46] = test system: DU-145
[47] = test system: SNB-75
[48] = test system: HT-29
[49] = test system: LOX IMVI
[50] = test system: SK-OV-3
[51] = test system: TK-10
[52] = test system: UACC-257
[53] = test system: HCT-15
[54] = test system: RPMI-8226
[55] = test system: BT-549
[56] = test system: SK-MEL-5
[57] = test system: SN12C
[58] = test system: T47D

Structure (SMILES): CC(C)(O)CCc1ccc(O)c2c(=O)c3c(O)c4c(cc3oc12)O[C@H]1OC=C[C@@]41O [AUSTOCYSTIN D]
- GI50 [1]: 2.26 µM (inactive)
- GI50 [2]: 0.056 µM (active)
- GI50 [3]: < 0.01 µM (active)
- GI50 [4]: < 0.01 µM (active)
- GI50 [5]: < 0.01 µM (active)
- GI50 [6]: < 10 nM (active)
- GI50 [7]: < 0.01 µM (active)
- GI50 [8]: < 0.01 µM (active)
- GI50 [9]: 0.0109 µM (active)
- GI50 [10]: < 0.0106 µM (active)
- GI50 [11]: 0.251 µM (active)
- GI50 [12]: < 0.01 µM (active)
- GI50 [13]: < 0.01 µM (active)
- GI50 [14]: < 0.01 µM (active)
- GI50 [15]: 0.255 µM (active)
- GI50 [16]: < 0.01 µM (active)
- GI50 [17]: 148 nM (active)
- GI50 [18]: < 0.01 µM (active)
- GI50 [19]: 9.79 µM (inactive)
- GI50 [20]: 1.23 µM (inactive)
- GI50 [21]: < 0.01 µM (active)
- GI50 [22]: 5.27 µM (inactive)
- GI50 [23]: 0.0199 µM (active)
- GI50 [24]: 7.06 µM (inactive)
- GI50 [25]: 1.08 µM (active)
- GI50 [26]: < 10 nM (active)
- GI50 [27]: < 0.01 µM (active)
- GI50 [28]: < 0.01 µM (active)
- GI50 [29]: 0.0507 µM (active)
- GI50 [30]: 0.0615 µM (active)
- GI50 [31]: < 0.01 µM (active)
- GI50 [32]: < 0.01 µM (active)
- GI50 [33]: 8.87 µM (inactive)
- GI50 [34]: 20 µM (inactive)
- GI50 [35]: 0.726 µM (active)
- GI50 [36]: 0.147 µM (active)
- GI50 [37]: 10.2 µM (inactive)
- GI50 [38]: < 0.01 µM (active)
- GI50 [39]: 0.514 µM (active)
- GI50 [40]: 0.148 µM (active)
- GI50 [41]: 0.411 µM (active)
- GI50 [42]: < 0.01 µM (active)
- GI50 [43]: 0.119 µM (active)
- GI50 [44]: 0.286 µM (active)
- GI50 [45]: < 0.01 µM (active)
- GI50 [46]: < 10 nM (active)
- GI50 [47]: 0.0562 µM (active)
- GI50 [48]: 1.24 µM (inactive)
- GI50 [49]: 9.31 µM (inactive)
- GI50 [50]: 0.0125 µM (active)
- GI50 [51]: < 0.01 µM (active)
- GI50 [52]: 0.0184 µM (active)
- GI50 [53]: < 10 nM
- GI50 [54]: 475 nM (active)
- GI50 [55]: 9.06 µM (inactive)
- GI50 [56]: 0.0102 µM (active)
- GI50 [57]: 8.69 µM (inactive)

Structure (SMILES): C(/C=N/N=C1NCCCCN1)=N\N=C1NCCCCN1
- GI50 [1]: > 100 µM (inactive)
- GI50 [2]: > 100 µM (inactive)
- GI50 [3]: > 100 µM (inactive)
- GI50 [4]: > 100 µM (inactive)
- GI50 [5]: > 100 µM (inactive)
- GI50 [7]: > 100 µM (inactive)
- GI50 [8]: > 100 µM (inactive)
- GI50 [9]: > 100 µM (inactive)
- GI50 [10]: > 100 µM (inactive)
- GI50 [11]: > 100 µM (inactive)
- GI50 [12]: > 100 µM (inactive)
- GI50 [13]: > 100 µM (inactive)
- GI50 [14]: > 100 µM (inactive)
- GI50 [15]: > 100 µM (inactive)
- GI50 [16]: > 100 µM (inactive)
- GI50 [18]: > 100 µM (inactive)
- GI50 [19]: > 100 µM (inactive)
- GI50 [20]: > 100 µM (inactive)
- GI50 [21]: > 100 µM (inactive)
- GI50 [22]: > 100 µM (inactive)
- GI50 [23]: > 100 µM (inactive)
- GI50 [58]: > 100 µM (inactive)
- GI50 [24]: > 100 µM (inactive)
- GI50 [25]: > 100 µM (inactive)
- GI50 [27]: > 100 µM (inactive)
- GI50 [28]: > 100 µM (inactive)
- GI50 [29]: > 100 µM (inactive)
- GI50 [30]: > 100 µM (inactive)
- GI50 [31]: > 100 µM (inactive)
- GI50 [32]: > 100 µM (inactive)
- GI50 [33]: > 100 µM (inactive)
- GI50 [34]: > 100 µM (inactive)
- GI50 [35]: > 100 µM (inactive)
- GI50 [36]: > 100 µM (inactive)
- GI50 [37]: > 100 µM (inactive)
- GI50 [38]: > 100 µM (inactive)
- GI50 [39]: > 100 µM (inactive)
- GI50 [40]: > 100 µM (inactive)
- GI50 [41]: > 100 µM (inactive)
- GI50 [42]: > 100 µM (inactive)
- GI50 [43]: > 100 µM (inactive)
- GI50 [44]: > 100 µM (inactive)
- GI50 [45]: > 100 µM (inactive)
- GI50 [47]: > 100 µM (inactive)
- GI50 [48]: > 100 µM (inactive)
- GI50 [49]: > 100 µM (inactive)
- GI50 [50]: > 100 µM (inactive)
- GI50 [51]: > 100 µM (inactive)
- GI50 [52]: > 100 µM (inactive)
- GI50 [55]: > 100 µM (inactive)
- GI50 [56]: > 100 µM (inactive)
- GI50 [57]: > 100 µM (inactive)
